Data set [1] can be described thus: pH testing of test substances (pH strips, probe and meter). Format: physicochemical. The method, then: PH testing was done by using both pH testing strips and a probe and meter for each test substance to determine its pH. Each test substance was dissolved in 150 ml distilled water then tested for its pH value. Where the test substance could not be tested because it was not water soluble, an art-recognized pH was used.
PH testing was done by using both ph testing strips and a probe and meter for each test substance to determine its pH. Each test substance was dissolved in 150 ml distilled water then tested for its pH value.

For data set [2] the following is noted: not tested, cited from earlier work; for (pH): Table 6, too viscous.
The nature of data set [3]: Two-week stability of compressed lozenge of NAD+ with a test substance, HPLC UV. As to conditions: for Observation when the composition was made: NAD+ with test substance, HPLC data could not be obtained. The method, then: Preparations of nicotinamide adenine dinucleotide (oxidized form) were compounded. A compressed lozenge was created including 100 mg nicotinamide adenine dinucleotide (oxidized form) and 100 mg of a test substance. The powders were compressed in a tablet mold and released. Each test tablet was then placed in a white 75cc HDPE container that was sealed and removed from UV light for two weeks at room temperature.
After a two week period, the compositions were tested by performing an HPLC UV.

The conditions of data set [4]: cited from earlier work.
Setting [5] is: anhydrous NAD+ with test substance, two weeks, HPLC UV versus NAD+ control.
The mark [6] stands for this setting: Table 5, test substance dissolved in 150 ml distilled water.

Entries after “also recorded” stand apart in the source; their conditions may differ. Like-named read-outs stand apart in the source and are kept apart here.

The values that follow come from patent US20200016188A1, “MODIFICATION OF THE PH AND OTHER PHYSICAL PROPERTIES OF NICOTINAMIDE ADENINE DINUCLEOTIDE (OXIDIZED FORM) TO ALLOW FOR ENHANCED STABILITY AND MULTIPLE DELIVERY SYSTEMS” (priority 2018, published 2020).

For `OC[C@@H](O)[C@@H](O)[C@H](O)[C@@H](O)CO` [70% Sorbitol, Sorbitol], the “(pH) Value” in data set [1] (summary of Table 6) is “neutral”. Moreover, the “(pH)” value in data set [2] is given as “(pH) neutral”.

Take `CCCCCCCCCCCCCCCC(=O)OC[C@H](O)[C@H]1OC(=O)C(O)=C1O` [Ascorbyl palmitate]: the pH range entry in data set [2] (Table 5, not water soluble, art-recognized pH) was “(pH) range 6.8-7.2”. Take `OCc1ccccc1` [Benzyl alcohol]: the “(pH) Value” in data set [1] (Table 6, test substance in 150 ml distilled water) is reported as 6.9; in data set [1] (summary of Table 6), “neutral”. On to `O=P([O-])([O-])O.[Ca+2]` [Calcium Phosphate Dibasic, Calcium phosphate dibasic], for which the “Degradation of NAD+ when formulated with the test substance by itself (words)” value (shortened to “Degradation of NAD+ when formulated”) in data set [3] (setting [5]) was “did not degrade the NAD+; also recorded: little to no degradation; also recorded: do not degrade NAD+”; in data set [3] (anhydrous NAD+ with test substance, two weeks, HPLC UV versus NAD+ control, listed as CaHPO4), “deemed effective”. In addition, in data set [1] (setting [6]), the “(pH) Value” was 8.5. For the compound `OC[C@@H](O)[C@@H](O)CO` [Erythitol, Erythritol], the “(pH) Value” in data set [1] (setting [6]) is 6.3. As for `OCC(O)CO` [Glycerin], the “(pH) Value” in data set [1] (summary of Table 6) is on record as “neutral”. Further, the “(pH)” value in data set [2] is reported as “(pH) neutral”.

With `[Mg+2].[OH-].[OH-]` [Magnesium Hydroxide Mg(OH)2, Magnesium hydroxide], the “Degradation of NAD+ when formulated” value is listed as “deemed effective” in data set [3] (anhydrous NAD+ with test substance, two weeks, HPLC UV versus NAD+ control, listed as Mg(OH)2) and “do not degrade NAD+; also recorded: provided for stable compositions of NAD+” in data set [3] (anhydrous NAD+ with test substance, two weeks, HPLC UV versus NAD+ control, listed as magnesium hydroxide). With `[O]=[Mg]` [Magnesium Oxide MgO, Magnesium oxide], the “Degradation of NAD+ when formulated” value in data set [3] (setting [5]) is “cause degradation of the NAD+”. In addition, the “(pH) Value” in data set [1] (setting [6]) was 9.1. `O=C([O-])[O-].[Mg+2]` [Magnesium carbonate MgCO2, Magnesium carbonate]: the “Degradation of NAD+ when formulated” value in data set [3] (setting [5]) is given as “did not degrade the NAD+; also recorded: little to no degradation; also recorded: do not degrade NAD+”. `OC[C@@H](O)[C@@H](O)[C@H](O)[C@H](O)CO` [Mannitol]: the “(pH) Value” in data set [1] (setting [6]) was 6.7. For the compound `NC(=O)c1ccc[n+]([C@@H]2O[C@H](COP(=O)([O-])OP(=O)(O)OC[C@H]3O[C@@H](n4cnc5c(N)ncnc54)[C@H](O)[C@@H]3O)[C@@H](O)[C@H]2O)c1` [NAD+, nicotinamide adenine dinucleotide (oxidized form)], the “Time NAD+ can be stable” value in data set [4] (aqueous solutions between pH 2-6, stored at −70° C.) is “up to 6 months”. The “Time NAD+ is stable” value in data set [4] (fairly neutral aqueous solutions at 0° C.) is given as “up to 2 weeks”. For the same compound, the “Time the stability of NAD+ will last” value in data set [4] (neutral or slightly acidic solutions stored at zero degrees Fahrenheit) was “up to 2 weeks”.

As for `O=C([O-])O.[K+]` [Potassium Bicarbonate K2CO2, Potassium bicarbonate], in data set [3] (setting [5]), the “Degradation of NAD+ when formulated” value is given as “cause degradation of the NAD+”. With `[K+].[OH-]` [Potassium Hydroxide KOH, Potassium hydroxide], in data set [3], the “Observation when the composition was made” value was “bubbled, liquefied, turned yellow, and created heat”. Further, the “Degradation of NAD+ when formulated” value in data set [3] (setting [5]) was “cause degradation of the NAD+”. Consider `O=C([O-])O.[Na+]` [Sodium Bicarbonate Na2CO2, Sodium bicarbonate], for which, in data set [3] (setting [5]), the “Degradation of NAD+ when formulated” value was “showed degradation shortly after creation of the lozenge tablet; also recorded: cause degradation of the NAD+”. Turning to `[Cl-].[Na+]` [Sodium Chloride NaCl, Sodium chloride], the “Degradation of NAD+ when formulated” value in data set [3] (setting [5]) was “positive results; also recorded: do not degrade NAD+”. As to `O=C1O[C@H]([C@@H](O)CO)C([O-])=C1O.[Na+]` [Sodium ascorbate], the “Degradation of NAD+ when formulated” value in data set [3] (setting [5]) was “positive results”; in data set [3] (anhydrous NAD+ with test substance, two weeks, HPLC UV versus NAD+ control, listed as sodium ascorbate) it was “do not degrade NAD+”. For `CCCCCCCCCCCCCCCCCC(=O)O` [Stearic acid], in data set [3], the “Degradation of NAD+ when formulated” value is reported as “cause degradation of the NAD+”. On to `CC(=O)Oc1c(C)c(C)c2c(c1C)CCC(C)(CCC[C@H](C)CCC[C@H](C)CCCC(C)C)O2` (some centres unmarked) [Tocopherol acetates, Tocopherol acetate], for which the “(pH) Value” in data set [1] (summary of Table 6) was “neutral”. Also, the “(pH)” value in data set [2] is given as “(pH) neutral”. Regarding `OC[C@@H](O)[C@H](O)[C@@H](O)CO` [Xylitol], in data set [1] (setting [6]), the “(pH) Value” is 6.5. Turning to Magnesium stearate, the “Degradation of NAD+ when formulated” value in data set [3] (setting [5]) is “cause degradation of the NAD+”. In the case of Polysorbate 80, the “(pH) Value” in data set [1] (summary of Table 6) was “neutral”. For the same compound, the “(pH)” value in data set [2] was “(pH) neutral”. “Sodium hydroxide [Sodium Hydroxide NaOH]”: the “Observation when the composition was made” value in data set [3] is “bubbled, liquefied, turned yellow, and created heat”.
